According to the CheMixHub viscosity set:

Experiment: xn = mol fraction of the nth substance listed

CCCCOCCOCCO + ClC(Cl)(Cl)Cl
298.15 K, 101.33 kPa
Details | viscosity [mPa·s]
x1 = 0.02 | 0.948
x1 = 0.038 | 0.989
x1 = 0.0629 | 1.05
x1 = 0.0892 | 1.14
x1 = 0.1363 | 1.29
x1 = 0.18 | 1.442
x1 = 0.2249 | 1.63
x1 = 0.2644 | 1.796
x1 = 0.3052 | 1.974
x1 = 0.4307 | 2.594
x1 = 0.4809 | 2.841
x1 = 0.5267 | 3.065
x1 = 0.5721 | 3.292
x1 = 0.6126 | 3.489
x1 = 0.6679 | 3.769
x1 = 0.7225 | 4.032
x1 = 0.7669 | 4.227
x1 = 0.8132 | 4.438
x1 = 0.8674 | 4.688
x1 = 0.9149 | 4.885
x1 = 0.9436 | 5.01
x1 = 0.9724 | 5.074

Nc1ccccc1Cl + CCOCCO
303.15 K, 101 kPa
Details | viscosity [mPa·s]
x1 = 0.0966 | 2.088
x1 = 0.1696 | 2.266
x1 = 0.2725 | 2.507
x1 = 0.3613 | 2.709
x1 = 0.4791 | 2.967
x1 = 0.5648 | 3.147
x1 = 0.68 | 3.372
x1 = 0.7804 | 3.544
x1 = 0.8884 | 3.696

CCC(C)O (stereo not given) + CCCCO
Details | viscosity [mPa·s]
303.15 K, 101 kPa, x2 = 0.8988 | 2.875

OC1COCOC1 + OCCO
viscosity [mPa·s], 101 kPa
Details | x1 = 0.1002 | x1 = 0.2002 | x1 = 0.3 | x1 = 0.4 | x1 = 0.5004 | x1 = 0.5997 | x1 = 0.7 | x1 = 0.8001 | x1 = 0.8999
298.15 K | 16.97 | 16.11 | 14.94 | 13.85 | 12.88 | 12.74 | 12.81 | 12.79 | 12.89
308.15 K | 11.6 | 10.98 | 10.23 | 9.473 | 8.583 | 8.457 | 8.572 | 8.812 | 8.878
318.15 K | 8.193 | 7.647 | 7.214 | 6.665 | 6.111 | 5.995 | 5.915 | 6.167 | 6.474

CCCCn1cc[n+](C)c1.F[B-](F)(F)F + CC(C)O
101.33 kPa
Details | viscosity [mPa·s]
293.15 K, x1 = 0.8458 | 68.89
293.15 K, x1 = 0.9327 | 95.48
298.15 K, x1 = 0.1585 | 7.02
298.15 K, x1 = 0.9327 | 82.35
303.15 K, x1 = 0.2402 | 9.55
303.15 K, x1 = 0.9327 | 70.16
308.15 K, x1 = 0.2402 | 8.45
313.15 K, x1 = 0.2402 | 6.79
313.15 K, x1 = 0.3505 | 9.91
318.15 K, x1 = 0.3505 | 7.14
318.15 K, x1 = 0.4422 | 9.33
323.15 K, x1 = 0.5619 | 8.26

OC1COCOC1 + CC(O)CO
viscosity [mPa·s], 101 kPa
Details | x1 = 0.1001 | x1 = 0.2022 | x1 = 0.2993 | x1 = 0.3988 | x1 = 0.5 | x1 = 0.5991 | x1 = 0.7069 | x1 = 0.8004 | x1 = 0.9002
298.15 K | 40.55 | 35.63 | 31.87 | 28.95 | 26.18 | 23.35 | 20.25 | 17.68 | 15.39
308.15 K | 23.27 | 20.32 | 18.06 | 16.28 | 14.83 | 13.52 | 12.12 | 10.93 | 9.829
318.15 K | 14.08 | 12.09 | 10.67 | 9.707 | 9.031 | 8.445 | 7.772 | 7.179 | 6.681

O=S1(=O)CCCC1 + OCCOCCOCCO
303.15 K, 101 kPa
Details | viscosity [mPa·s]
x1 = 0.0435 | 27.75
x1 = 0.0985 | 25.88
x1 = 0.2083 | 22.54
x1 = 0.2999 | 20.02
x1 = 0.3966 | 17.63
x1 = 0.4473 | 16.49
x1 = 0.4985 | 15.45
x1 = 0.5498 | 14.47
x1 = 0.5855 | 13.85
x1 = 0.6913 | 12.24
x1 = 0.8065 | 10.9
x1 = 0.8984 | 10.18
x1 = 0.9458 | 10.08

CC(O)CC(C)(C)O (stereo not given) + Clc1ccccc1
viscosity [mPa·s], 101 kPa
Details | x1 = 0.0989 | x1 = 0.1989 | x1 = 0.2931 | x1 = 0.3916 | x1 = 0.4927 | x1 = 0.5867 | x1 = 0.6888 | x1 = 0.7938 | x1 = 0.8999
308.15 K | 0.7755 | 0.9332 | 1.164 | 1.513 | 2.151 | 2.823 | 4.238 | 6.453 | 10.85
318.15 K | 0.6372 | 0.7412 | 0.9438 | 1.242 | 1.814 | 2.278 | 3.416 | 5.241 | 9.228

CC(O)CC(C)(C)O (stereo not given) + O=Cc1ccccc1
viscosity [mPa·s], 101 kPa
Details | x1 = 0.0921 | x1 = 0.1829 | x1 = 0.2762 | x1 = 0.3752 | x1 = 0.4712 | x1 = 0.5787 | x1 = 0.6736 | x1 = 0.775 | x1 = 0.8828
308.15 K | 1.337 | 1.484 | 1.717 | 2.062 | 2.679 | 3.484 | 4.864 | 7.155 | 10.92
318.15 K | 1.004 | 1.149 | 1.368 | 1.7 | 2.157 | 2.801 | 3.804 | 5.903 | 9.45

CO/N=C(\C(=O)N[C@@H]1C(=O)N2C(C(=O)O)=C(C[N+]3(C)CCCC3)CS[C@H]12)c1csc(N)n1.Cl.[Cl-] + O
Details | viscosity [mPa·s]
293.15 K, 101.33 kPa, x1 = 0.002414 | 1.235

O=S1(=O)CCCC1 + C1COCO1
viscosity [mPa·s], 101 kPa
Details | 303.15 K | 308.15 K | 313.15 K | 318.15 K | 323.15 K
x1 = 0.207 | 0.89 | 0.85 | 0.82 | 0.78 | 0.75
x1 = 0.43 | 1.49 | 1.39 | 1.24 | 1.21 | 1.17
x1 = 0.658 | 3.04 | 2.53 | 2.32 | 2.12 | 1.99

C1CC[NH2+]C1.CCCCCCCC(=O)[O-] + CC#N
viscosity [mPa·s], 101 kPa
Details | x1 = 0.1601 | x1 = 0.2228 | x1 = 0.2843 | x1 = 0.3982 | x1 = 0.4849 | x1 = 0.609 | x1 = 0.6946 | x1 = 0.7891 | x1 = 0.9081
293.15 K | 5.42 | 6.71 | 7.22 | 11.37 | 13.54 | 18.24 | 24.41 | 33.6 | 51.93
298.15 K | 4.61 | 6.42 | 7.9 | 9.98 | 12.08 | 16.32 | 22.17 | 30.5 | 44.73
303.15 K | 3.37 | 3.58 | 5.31 | 8.14 | 9.96 | 14.01 | 17.35 | 24.21 | 35.95
308.15 K | 2.41 | 3.39 | 5.02 | 7.88 | 9.48 | 13.07 | 15.79 | 21.95 | 30.54
313.15 K | 1.92 | 2.99 | 4.35 | 6.59 | 8.46 | 10.7 | 14.2 | 18.22 | 25.69

Cc1ccccc1N + NCCO
viscosity [mPa·s], 100 kPa
Details | x1 = 0.0997 | x1 = 0.1749 | x1 = 0.2629 | x1 = 0.3629 | x1 = 0.4797 | x1 = 0.5707 | x1 = 0.6849 | x1 = 0.7826 | x1 = 0.8935
303.15 K | 13.32 | 12.49 | 11.51 | 10.39 | 9.093 | 8.076 | 6.799 | 5.704 | 4.459
308.15 K | 11.11 | 10.42 | 9.62 | 8.704 | 7.633 | 6.796 | 5.745 | 4.842 | 3.815
313.15 K | 9.063 | 8.521 | 7.884 | 7.159 | 6.309 | 5.646 | 4.812 | 4.095 | 3.278
318.15 K | 7.032 | 6.632 | 6.161 | 5.624 | 4.994 | 4.503 | 3.884 | 3.352 | 2.744

C[N+](C)(C)CCO.O=C1O[C@H]([C@@H](O)CO)C([O-])=C1O + O
viscosity [mPa·s], 100 kPa
Details | x1 = 0.001102 | x1 = 0.001323 | x1 = 0.001802 | x1 = 0.002629 | x1 = 0.00391 | x1 = 0.005531
293.15 K | 1.048 | 1.056 | 1.072 | 1.099 | 1.141 | 1.192
298.15 K | 0.933 | 0.94 | 0.956 | 0.98 | 1.018 | 1.065
303.15 K | 0.838 | 0.845 | 0.859 | 0.882 | 0.917 | 0.96
308.15 K | 0.758 | 0.764 | 0.778 | 0.799 | 0.832 | 0.872
313.15 K | 0.69 | 0.696 | 0.709 | 0.729 | 0.76 | 0.798

CCCCOCCOCCO + CCN(CC)CC
viscosity [mPa·s], 100 kPa
Details | 298.15 K | 303.15 K | 308.15 K
x1 = 0.05083 | 0.4832 | 0.4499 | 0.4246
x1 = 0.1 | 0.6109 | 0.5597 | 0.5234
x1 = 0.15 | 0.7524 | 0.6836 | 0.637
x1 = 0.2 | 0.9081 | 0.8131 | 0.7543
x1 = 0.3 | 1.246 | 1.108 | 1.021
x1 = 0.3999 | 1.641 | 1.447 | 1.324
x1 = 0.5 | 2.105 | 1.837 | 1.669
x1 = 0.5999 | 2.629 | 2.278 | 2.067
x1 = 0.6995 | 3.213 | 2.776 | 2.496
x1 = 0.8 | 3.822 | 3.271 | 2.93
x1 = 0.8998 | 4.474 | 3.817 | 3.419
x1 = 0.9499 | 4.793 | 4.075 | 3.631

O=S(=O)(Cl)Cl + c1ccccc1
298.15 K, 101 kPa
Details | viscosity [mPa·s]
x1 = 0.176 | 0.6172
x1 = 0.43 | 0.6463
x1 = 0.699 | 0.6673
x1 = 0.734 | 0.6691
x1 = 0.845 | 0.6757

CCCCOCCOCCO + ClC(Cl)=C(Cl)Cl
298.15 K, 101.33 kPa
Details | viscosity [mPa·s]
x1 = 0.0092 | 0.859
x1 = 0.0253 | 0.883
x1 = 0.0385 | 0.91
x1 = 0.0481 | 0.929
x1 = 0.0583 | 0.95
x1 = 0.0816 | 1.001
x1 = 0.0932 | 1.03
x1 = 0.1188 | 1.09
x1 = 0.1559 | 1.186
x1 = 0.1903 | 1.289
x1 = 0.2322 | 1.413
x1 = 0.2748 | 1.557
x1 = 0.3127 | 1.691
x1 = 0.3556 | 1.851
x1 = 0.3911 | 2
x1 = 0.4295 | 2.16
x1 = 0.4585 | 2.288
x1 = 0.4917 | 2.445
x1 = 0.531 | 2.635
x1 = 0.575 | 2.845
x1 = 0.6181 | 3.066
x1 = 0.666 | 3.31
x1 = 0.7112 | 3.548
x1 = 0.7734 | 3.894
x1 = 0.8415 | 4.283
x1 = 0.8983 | 4.615
x1 = 0.929 | 4.805
x1 = 0.9482 | 4.918
x1 = 0.9696 | 5.061
x2 = 0.0169 | 5.131
